The values below come from patent US10398713B2, “Compositions and methods for the treatment of neurodegenerative and other diseases” (Glialogix, Inc., priority 2013, dated 2019).

For data set [1] the following is noted: SOD1, mouse, in vivo, ip, 200 mg/kg.
Method: The zero time point was taken before drug was administered to serve as a negative control for drug quantitation. […] Spinal cords and blood plasma samples (50 μl) were homogenized in 150 μl of phosphate buffer and then extracted by a mixture of methylene chloride and MTBE (1:4 dilution). Sample extracts were analyzed and quantitated by high-performance liquid chromatography using a BetaMax Acid column maintained at 35° C. The mobile phase was nebulized using heated nitrogen in a Z-spray source/interface and the ionized compositions were detected and identified using a tandem quadrupole mass spectrometer (MS/MS).
The conditions of data set [2]: 2 g oral dose; humans with ABCG2 genotype (421C/C); cited from earlier work.
In a further data set the test system is SOD1^G93A mice. The data set can be described thus: Survival study in SOD1 G93A mice (neurological score, survival). It is filed as in vivo, mouse. To be noted: for Expected Days, Sulfasalazine: predicted from vehicle cohort if no effect. The procedure: High-copy SOD1^G93A transgenic mice were derived from the B6SJL-TgN(SOD1G93A)1Gur strain, obtained from The Jackson Laboratory (Bar Harbor, Me.) and originally produced by Gurney, e.g. Gurney et al., Science 264: 1772-1775 (1994). Animal experiments with the SOD1 model were performed at ALS Therapy Development Institute (herein “ALS-TDI”; Cambridge, Mass.). All mice were genotyped to verify copy number of the SOD1 transgene. Animal handling and study protocols were as previously described by ALS-TDI, e.g. Scott et al., Amyotroph. Lateral Scler. 9: 4-15 (2008).
Groups were balanced with respect to gender and body weight within gender. In addition, groups were age-matched and littermate-matched. […] Each cohort of was balanced between males and females.
5 mL of 0.1 N NaOH was added and the tube gently sonicated. Approximately 140 μL of 1 N HCl was then added to bring the pH to 8.00. The resulting 20 mg/mL solution was delivered by intraperitoneal injection at 10 ml/kg. Vehicle treated mice were administered saline.
Neurological scores were assessed daily from day 50 for both hind legs. The neurological score was based on a scale of 0 to 4. Criteria used to assign each score level are from Scott et al., Amyotroph. Lateral Scler. 9: 4-15 (2008) and are described in Table 2.
The date of definitive neurological disease was the day that the mouse first scored a “2” on the Neurological Score. Upon reaching a score of Neurological Score of “4”, mice were euthanized and the date of death was recorded.
Survival after onset of definitive neurological disease is defined as the total number of days the mice lived after reaching definitive neurological disease (Neurological Score of 2) and before death (Neurological Score of 4). Survival after onset of definitive neurological disease was analyzed in two ways.
The first day that a neurological score was determined was day 50 of age; measurements were collected daily afterwards until death.
The three categories were: (1) days spent before definitive neurological disease, e.g. with a neurological score of 0 or 1; (2) days spent during definitive neurological disease, e.g. with a neurological score of 2 or 3; and (3) days at death, e.g. with a neurological score of 4. By definition, mice were only in the dead state for 1 day, as they were euthanized upon reaching a neurological score of 4; this category was included as a positive control to ensure the integrity of the data and analysis.

Setting [3] is: sulfasalazine vs vehicle, SOD1 mice, 200 mg/kg IP two times per day.

Consider `O=C(O)c1cc(/N=N/c2ccc(S(=O)(=O)Nc3ccccn3)cc2)ccc1O` [Sulfasalazine, 2-hydroxy-5-[(E)-2-{4-[(pyridin-2-yl)sulfamoyl]phenyl}diazen-1-yl]benzoic acid], for which, in data set [1], the “time therapeutically relevant concentrations were present in the spinal cord” value is 2 to 2.5 h. For the same molecule, the “time plasma levels above 10 μg/ml were maintained” value in data set [2] was “approximately 7 hours”. Also, the “increase of median absolute survival” value with SOD1^G93A mice (SOD1 mice vs vehicle, 200 mg/kg IP two times per day, p=0.07) stood at 3.5 days. Further, the “effect on time of disease onset” value in the data set with SOD1^G93A mice (SOD1 mice, 200 mg/kg IP two times per day) is “no statistical effect”. The “Expected Days, Sulfasalazine” value in the data set with SOD1^G93A mice (Total Observations) was 2050 days. Further, in the data set with SOD1^G93A mice (before definitive disease onset (neurological score 0 or 1)), the “Observed Days Minus Expected Days” value is “no significant difference”. In the data set with SOD1^G93A mice (death (neurological score 4)), the “Observed Days Minus Expected Days” value was “no significant difference” and the “Expected Days, Sulfasalazine” value is 27 days. Also, in the data set with SOD1^G93A mice (death (neurological score 4), cohort n=27), the “Observed Days, Sulfasalazine” value came to 27 days. In the data set with SOD1^G93A mice (setting [3]), the “Absolute Change in Mean Day of Death” value turned out to be 3.7 days, the “Absolute Change in Mean Day of Definitive Neurological Disease” value is −1.2 day, the “Absolute Change in Total Days of Survival after Onset of Definitive Disease” value was 4.9 days and the “Percent Change in Mean Day of Death” value worked out at 2.9%. The “Percent Change in Mean Day of Definitive Neurological Disease” value in the data set on SOD1^G93A mice (setting [3]) was −1.0%. Besides, in the data set on SOD1^G93A mice (sulfasalazine vs vehicle, SOD1 mice, 200 mg/kg IP two times per day, 200 mg/kg), the “Percent Change in Total Days of Survival after Onset of Definitive Disease (increased lifespan after onset)” value was found to be 39%. Further, the “Expected Days, Sulfasalazine” value with SOD1^G93A mice (total days before definitive disease onset (neurological score 0 or 1), normalized for number of animals) was 1722 days. Also, in the data set on SOD1^G93A mice (total days in definitive neurological disease (neurological score 2 or 3)), the “Expected Days, Sulfasalazine” value is 301 days.
